According to patent US9676818B2, “Toll-like receptor 2-agonistic lipopeptides, and method of making the same” (University of Kansas, priority 2013, dated 2017):
Like-named read-outs stand apart in the source and are kept apart here.

Target: human TLR2 (Homo sapiens (Human), UniProt O60603)
Assay: human TLR2-specific NF-κB reporter gene assay (HEK-Blue cells)
Assay type: cell-based
Conditions: for absolute magnitude of TLR2-induced NF-κB activation: hTLR2, FIG. 1
Description: The induction of NF-κB in a TLR2-specific reporter gene assay was quantified using HEK-BLUE™ cells as previously described (Wu, W. et al., J. Med. Chem. 2010, 53, 3198-3213). HEK293 cells stably transfected with either human TLR2 or murine TLR2 and alkaline phosphatase (sAP) were obtained from InvivoGen (San Diego, Calif.), and were maintained in HEK-BLUE™ Selection medium containing zeocin and normocin. Stable expression of secreted alkaline phosphatase (sAP) under control of NF-κB promoters is inducible by TLR2 agonists, and extracellular sAP in the supernatant is proportional to NF-κB induction. HEK-Blue cells were incubated at a density of ˜10^5 cells/mL in a volume of 80 μL/well, in 384-well, flat-bottomed, cell culture-treated microtiter plates until confluency was achieved, and then stimulated with serially-diluted aliquots of compounds for 12 h. sAP was assayed spectrophoto-metrically using an alkaline phosphatase-specific chromogen (present in the HEK-detection medium as supplied by the vendor) at 620 nm. For antagonism assays, HEK-Blue cells were incubated at a density of ˜10^5 cells/mL in a volume of 80 μL/well and stimulated with either PAM2CS (1 μg/mL) or lipoteichoic acid (1 μg/mL) in the presence of graded concentrations of the test compounds as described for TLR7 previously (Shukla, N. M.; et al., Bioorg. Med. Chem. Lett. 2009, 19, 2211-2214; Shukla, N. M. et al., Bioorg. Med. Chem. 2011, 19, 3801-3811).

[1] = human TLR2-specific reporter gene assay, ND = no activity detected at 10 μM, read-out: TLR2-Agonistic Activity (EC50 in nM)

Sequence of human TLR2 (O60603 21-784): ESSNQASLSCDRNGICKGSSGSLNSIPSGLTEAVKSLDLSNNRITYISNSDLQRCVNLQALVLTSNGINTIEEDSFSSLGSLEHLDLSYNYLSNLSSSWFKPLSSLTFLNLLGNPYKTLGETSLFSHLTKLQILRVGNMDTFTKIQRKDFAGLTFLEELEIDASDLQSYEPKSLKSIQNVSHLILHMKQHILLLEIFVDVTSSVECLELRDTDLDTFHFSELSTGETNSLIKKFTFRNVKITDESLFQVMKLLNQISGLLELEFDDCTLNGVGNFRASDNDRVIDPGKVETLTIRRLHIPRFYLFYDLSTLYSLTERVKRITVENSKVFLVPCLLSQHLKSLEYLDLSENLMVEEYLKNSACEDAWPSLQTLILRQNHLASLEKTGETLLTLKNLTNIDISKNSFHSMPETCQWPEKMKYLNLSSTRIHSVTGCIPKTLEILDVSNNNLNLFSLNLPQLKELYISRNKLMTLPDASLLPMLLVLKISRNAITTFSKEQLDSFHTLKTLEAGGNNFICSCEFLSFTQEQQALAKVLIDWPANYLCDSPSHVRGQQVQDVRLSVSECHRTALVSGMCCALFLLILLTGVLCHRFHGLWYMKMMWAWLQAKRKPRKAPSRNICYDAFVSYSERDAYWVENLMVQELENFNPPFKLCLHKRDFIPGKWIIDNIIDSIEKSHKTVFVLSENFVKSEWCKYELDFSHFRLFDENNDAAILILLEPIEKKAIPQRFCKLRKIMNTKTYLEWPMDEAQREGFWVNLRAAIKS

Compound	EC50 [1] [nM]	hTLR2-agonistic activity in words (hTLR2 reporter gene assay)	absolute magnitude of TLR2-induced NF-κB activation	EC50 (hTLR2 reporter gene assay, read-out: EC50 in engaging hTLR2) [nM]
CCCC(=O)OCCSC[C@H](N)C(=O)N[C@@H](CO)C(=O)OC [Compound 6a, 2-(((R)-2-Amino-3-(((S)-3-Hydroxy-1-Methoxy-1-oxopropan-2-yl)amino)-3-oxopropyl)thio)ethyl butyrate]	> 10000			
CCCCCCCC(=O)OCCSC[C@H](N)C(=O)N[C@@H](CO)C(=O)OC [Compound 6b, 2-(((R)-2-amino-3-(((S)-3-hydroxy-1-methoxy-1-oxopropan-2-yl)amino)-3-oxopropyl)thio)ethyl octanoate]	> 10000			
CCCCCCCCCCCC(=O)OCCSC[C@H](N)C(=O)N[C@@H](CO)C(=O)OC [Compound 6c, 2-(((R)-2-amino-3-(((S)-3-hydroxy-1-methoxy-1-oxopropan-2-yl)amino)-3-oxopropyl)thio)ethyl dodecanoate]	> 10000			
COC(=O)[C@H](CO)NC(=O)[C@@H](N)CSCCOC(=O)c1ccc(-c2ccccc2)cc1 [Compound 6f, 2-(((R)-2-amino-3-(((S)-3-hydroxy-1-methoxy-1-oxopropan-2-yl)amino)-3-oxopropyl)thio)ethyl[1,1′-biphenyl]-4-carboxylate]	> 10000	complete absence of activity		
COC(=O)[C@H](CO)NC(=O)[C@@H](N)CSCCOC(=O)c1cccc(-c2ccccc2)c1 [Compound 6g, 2-(((R)-2-amino-3-(((S)-3-hydroxy-1-methoxy-1-oxopropan-2-yl)amino)-3-oxopropyl)thio)ethyl[1,1′-biphenyl]-3-carboxylate]	> 10000	complete absence of activity		
COC(=O)[C@H](CO)NC(=O)[C@@H](N)CSCCOC(=O)c1ccc(-c2ccc(-c3ccccc3)cc2)cc1 [Compound 6h]		complete absence of activity		
CCCCCCCCCCCCCCN(CCCCCCCCCCCCCC)CC(=O)OCCSC[C@H](N)C(=O)N[C@@H](CO)C(=O)OC [Compound 10a, (S)-methyl 2-((R)-2-amino-3-((2-(2-(ditetradecylamino)acetoxy)ethyl)thio)propan-amido)-3-hydroxypropanoate]	> 10000	completely inactive		
CCCCCCCCCCCCCCNCC(=O)OCCSC[C@H](N)C(=O)N[C@@H](CO)C(=O)OC [Compound 10b, (S)-methyl 2-((R)-2-amino-3-((2-(2-(tetradecylamino)acetoxy)ethyl)thio)propanamido)-3-hydroxypropanoate]	> 10000	completely inactive		
CCCCCCCCCCCCCCCC(=O)OCCSC[C@H](N)C(=O)N[C@@H](COC(C)=O)C(=O)OC [Compound 14a, 2-(((R)-3-(((S)-3-acetoxy-1-methoxy-1-oxopropan-2-yl)amino)-2-amino-3-oxopropyl)thio)ethyl palmitate]	2.97	virtually indistinguishable from that of 6d		
CCCCCCCCCCCCCCCC(=O)OCCCSC[C@H](N)C(=O)N[C@@H](CO)C(=O)OC [Compound 15, 3-((R)-2-amino-3-((S)-3-hydroxy-1-methoxy-1-oxopropan-2-ylamino)-3-oxopropylthio)propyl palmitate]	> 10000	inactive		
CCCCCCCCCCCCCCCC(=O)OCCCSC[C@H](NC(C)=O)C(=O)N[C@@H](CO)C(=O)OC [Compound 16, 3-(((R)-2-acetamido-3-(((S)-3-hydroxy-1-methoxy-1-oxopropan-2-yl)amino)-3-oxopropyl)thio)propyl palmitate]	5.52	active, albeit much weaker in potency than 11d		
CCCCCCCCCCCCCCCC(=O)OCCSC[C@H](NC(C)=O)C(=O)N[C@@H](COC(=O)c1cccnc1)C(=O)OC [Compound 28, (S)-2-((R)-2-Acetamido-3-((2-(palmitoyloxy)ethyl)thio)propanamido)-3-methoxy-3-oxopropyl nicotinate]	1.27			

More lines, now with the values ahead:

EC50 [1] [nM]	hTLR2-agonistic activity in words (hTLR2 reporter gene assay)	absolute magnitude of TLR2-induced NF-κB activation	EC50 (hTLR2 reporter gene assay, read-out: EC50 in engaging hTLR2) [nM]	Compound
> 10000	inactive			CCCCCCCCCCCCCCCC(=O)OCCSC[C@H](NCC)C(=O)N[C@@H](CO)C(=O)OC [Compound 11a, 2-(((R)-2-(ethylamino)-3-(((S)-3-hydroxy-1-methoxy-1-oxopropan-2-yl)amino)-3-oxopropyl)thio)ethyl palmitate]
> 10000	inactive			CCCCCCCCCCCCCCCC(=O)OCCSC[C@H](NCCCCCCCC)C(=O)N[C@@H](CO)C(=O)OC [Compound 11b, 2-(((R)-3-(((S)-3-hydroxy-1-methoxy-1-oxopropan-2-yl)amino)-2-(octylamino)-3-oxopropyl)thio)ethyl palmitate]
> 10000	inactive			CCCCCCCCCCCCCCCCN[C@@H](CSCCOC(=O)CCCCCCCCCCCCCCC)C(=O)N[C@@H](CO)C(=O)OC [Compound 11c, 2-(((R)-2-(hexadecylamino)-3-(((S)-3-hydroxy-1-methoxy-1-oxopropan-2-yl)amino)-3-oxopropyl)thio)ethyl palmitate]
1.01		far greater		CCCCCCCCCCCCCCCC(=O)OCCSC[C@H](NC(C)=O)C(=O)N[C@@H](CO)C(=O)OC [Compound 11d, 2-(((R)-2-acetamido-3-(((S)-3-hydroxy-1-methoxy-1-oxopropan-2-yl)amino)-3-oxopropyl)thio)ethyl palmitate]
1.64				CCCCCCCCCCCCCCCC(=O)OCCSC[C@H](NC(=O)CCC)C(=O)N[C@@H](CO)C(=O)OC [Compound 11e, 2-(((R)-2-butyramido-3-(((S)-3-hydroxy-1-methoxy-1-oxopropan-2-yl)amino)-3-oxopropyl)thio)ethyl palmitate]
3.8				CCCCCCCCCCCCCCCC(=O)OCCSC[C@H](NC(=O)CCCCCCC)C(=O)N[C@@H](CO)C(=O)OC [Compound 11f, 2-(((R)-3-(((S)-3-hydroxy-1-methoxy-1-oxopropan-2-yl)amino)-2-octanamido-3-oxopropyl)thio)ethyl palmitate]
> 10000	complete loss of activity			CCCCCCCCCCCCCCCC(=O)N[C@@H](CSCCOC(=O)CCCCCCCCCCCCCCC)C(=O)N[C@@H](CO)C(=O)OC [Compound 11g, 2-(((R)-3-(((S)-3-hydroxy-1-methoxy-1-oxopropan-2-yl)amino)-3-oxo-2-palmitamidopropyl)thio)ethyl palmitate]
		low magnitude	4.5	CCCCCCCCCCCCCCCC(=O)OCCSC[C@H](NC(=O)C(F)(F)F)C(=O)N[C@@H](CO)C(=O)OC [Compound 11h, 2-(((R)-3-(((S)-3-hydroxy-1-methoxy-1-oxopropan-2-yl)amino)-3-oxo-2-(2,2,2-trifluoro-acetamido)propyl)thio)ethyl palmitate]
> 10000	inactive			CCCCCCCCCCCCCCCC(=O)OCCSC[C@H](NC(=O)C(Cl)(Cl)Cl)C(=O)N[C@@H](CO)C(=O)OC [Compound 11i, 2-(((R)-3-(((S)-3-hydroxy-1-methoxy-1-oxopropan-2-yl)amino)-3-oxo-2-(2,2,2-trichloroacetamido)propyl)thio)ethyl palmitate]
> 10000	inactive			CCCCCCCCCCCCCCCC(=O)OCCSC[C@H](NS(C)(=O)=O)C(=O)N[C@@H](CO)C(=O)OC [Compound 11j, 2-(((R)-3-(((S)-3-hydroxy-1-methoxy-1-oxopropan-2-yl)amino)-2-(methylsulfonamido)-3-oxo-propyl)thio)ethyl palmitate]
> 10000	inactive			CCCCCCCCCCCCCCCC(=O)OCCSC[C@H](NS(=O)(=O)C(F)(F)F)C(=O)N[C@@H](CO)C(=O)OC [Compound 11k, 2-(((R)-3-(((S)-3-hydroxy-1-methoxy-1-oxopropan-2-yl)amino)-3-oxo-2-(trifluoromethyl-sulfonamido)propyl)thio)ethyl palmitate]
> 10000	inactive			CCCCCCCCCCCCCCCC(=O)OCCSC[C@H](NS(=O)(=O)c1ccc(C)cc1)C(=O)N[C@@H](CO)C(=O)OC [Compound 11l, 2-(((R)-3-(((S)-3-hydroxy-1-methoxy-1-oxopropan-2-yl)amino)-2-(4-methylphenylsulfonamido)-3-oxopropyl)thio)ethyl palmitate]
5.47				CCCCCCCCCCCCCCCC(=O)OCCSC[C@H](N)C(=O)N[C@@H](COC(=O)CCC)C(=O)OC [Compound 14b, 2-(((R)-2-amino-3-(((S)-3-(butyryloxy)-1-methoxy-1-oxopropan-2-yl)amino)-3-oxopropyl)thio)ethyl palmitate]
5.95				CCCCCCCCCCCCCCCC(=O)OCCSC[C@H](N)C(=O)N[C@@H](COC(=O)CCCCCCCCCCCCCCC)C(=O)OC [Compound 14c, 2-(((R)-2-amino-3-(((S)-1-methoxy-1-oxo-3-(palmitoyloxy)propan-2-yl)amino)-3-oxopropyl)thio)ethyl palmitate]
